Structures can show the parent of a compound that is named as a salt.

For 43 compounds, IC50 results are on record in BindingDB's records for doi:10.7270/Q2PR7TCX (The Scripps Research Institute Molecular Screening Center, 2007).

This test addresses Steroidogenic factor 1 (Homo sapiens, UniProt Q13285). Put plainly: SF-1 inhibitors in Gal4 reporter counter-screen, dose response, counter-screen for RORA inhibitor project, cell-based, CHO-K1, Gal4-SF-1 LBD, luciferase luminescence (AID 611).
The mark [1] stands for this setting: inactive by the depositor's call.

Chain of Steroidogenic factor 1 (Q13285 whole entry, the tested form may be a part): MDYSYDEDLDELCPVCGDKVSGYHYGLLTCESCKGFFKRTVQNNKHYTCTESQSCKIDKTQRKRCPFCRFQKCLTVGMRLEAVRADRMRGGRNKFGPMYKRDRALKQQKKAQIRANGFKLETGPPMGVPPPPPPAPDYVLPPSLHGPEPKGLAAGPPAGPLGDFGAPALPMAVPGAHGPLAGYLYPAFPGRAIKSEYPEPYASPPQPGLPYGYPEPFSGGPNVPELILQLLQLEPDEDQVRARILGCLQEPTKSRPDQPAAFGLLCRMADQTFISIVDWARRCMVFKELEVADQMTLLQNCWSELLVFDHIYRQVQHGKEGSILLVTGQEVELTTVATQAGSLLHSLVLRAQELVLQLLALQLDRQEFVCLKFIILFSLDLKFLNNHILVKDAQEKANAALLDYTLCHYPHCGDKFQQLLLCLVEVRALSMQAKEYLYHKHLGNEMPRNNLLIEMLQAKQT

Compound `COc1ccc(OCc2cccc(C(=O)O)c2)cc1` [3-[(4-methoxyphenoxy)methyl]benzoic acid] had an IC50 of 0.37 µM. On the same count and under the same terms, to `Cc1cnc(NC(=O)COc2ccccc2Cl)s1` [2-(2-chloranylphenoxy)-N-(5-methyl-1,3-thiazol-2-yl)ethanamide] belongs 5.63 µM; to `c1ccc(-c2cccc(-c3ccccn3)n2)nc1` [2,6-bis(2-pyridinyl)pyridine], 2.81 µM; to `O=NC1c2cc(S(=O)(=O)N3CCCCC3)ccc2-c2ccc(S(=O)(=O)N3CCCCC3)cc21` [2,7-Bis-(piperidine-1-sulfonyl)-fluoren-9-one oxime], 2.14 µM. `COc1ccccc1-c1cc(C(F)(F)F)nc(S(=O)(=O)CCCC(=O)Nc2cc(C)on2)n1` [4-[4-(2-methoxyphenyl)-6-(trifluoromethyl)pyrimidin-2-yl]sulfonyl-N-(5-methyl-1,2-oxazol-3-yl)butanamide] showed an IC50 under setting [1] of 13.2 µM. The compound `c1ccc2nc(-c3nc4ccccc4[nH]3)ccc2c1` [SMR000008748] displayed an IC50 of 7.19 µM. The same measure, in the same setting: next, `Cc1cc(C)n(-c2ccc3cccc(NS(C)(=O)=O)c3n2)n1` [MLS000062301]: 4.32 µM. The same measure, in the same setting: next, `CN(C)c1ccc(-c2nc3ccccc3n2C)cc1` [MLS000089904]: 6.81 µM.

For `O=C(CSC1=NCCS1)Nc1ccnc2ccccc12` [2-(4,5-dihydro-1,3-thiazol-2-ylsulfanyl)-N-quinolin-4-yl-ethanamide], 5.95 µM corresponded to half-maximal inhibition (IC50). In turn, `COc1cccc(C(=O)c2sc(NC(C)C)nc2N)c1` [MLS000036929] gave an IC50 of 5.26 µM.

For `Cc1ccc2c(c1)nnn2C1CCN(S(=O)(=O)c2ccc(C(=O)N3C(C)CCCC3C)cc2)CC1` (stereo not drawn) [(2,6-Dimethyl-piperidin-1-yl)-{4-[4-(5-methyl-benzotriazol-1-yl)-piperidine-1-sulfonyl]-phenyl}-methanone], the IC50 under setting [1] is 10.6 µM. In the case of `CC(=O)c1c(C)[nH]c(C(=O)OCCCCN2C(=O)c3ccccc3C2=O)c1C` [4-acetyl-3,5-dimethyl-1H-pyrrole-2-carboxylic acid 4-(1,3-dioxo-2-isoindolyl)butyl ester], half-maximal inhibition (IC50) was put at 5.04 µM. In other words, the single-digit micromolar range. Same read-out and setting: next, `Cn1ncnc2c(=O)n(C)c(=O)nc1-2`: 0.633 µM; `Cc1ccc(-c2nsc3c(N4CCC(C(N)=O)CC4)ncnc23)cc1` [1-(3-p-Tolyl-isothiazolo[4,5-d]pyrimidin-7-yl)-piperidine-4-carboxylic acid amide]: 1.53 µM. `Cc1cc(C)nc(SCC(=O)Nc2ccc(N3CCOCC3)c(Cl)c2)n1` [MLS000066583] yielded an IC50 under setting [1] of 13.3 µM. That is a double-digit micromolar value.

`CCC(NC(=O)Nc1nnc(C(F)(F)F)s1)(C(F)(F)F)C(F)(F)F` gave an IC50 of 2.74 µM. Turning to `CCc1nn2cc(-c3ccccc3)nc2s1` [2-ethyl-6-phenyl-imidazo[2,1-b][1,3,4]thiadiazole], the IC50 is greater than 3.67 µM. `Cc1ccccc1NC(=O)c1cnc2ccccn2c1=O` [4-keto-N-(o-tolyl)pyrido[1,2-a]pyrimidine-3-carboxamide] displayed an IC50 greater than 11 µM.

In the case of `Oc1c(CN2CCN(c3ccccn3)CC2)cc(Cl)c2cccnc12` [5-chloranyl-7-[(4-pyridin-2-ylpiperazin-1-yl)methyl]quinolin-8-ol], half-maximal inhibition (IC50) was put at 6.65 µM.

Under setting [1], `Cc1ccccc1OCC(=O)Nc1ccc(N2CCN(C(=O)C(C)C)CC2)c(Cl)c1` [MLS000034491] registered an IC50 of 14 µM. This counts as double-digit micromolar. For the compound `O=C(O)c1cccc(COc2ccccc2Cl)c1` [3-[(2-chloranylphenoxy)methyl]benzoic acid], inhibition was half-maximal at 0.582 µM (IC50). Still for that read-out and setting: next, `O=C(NCc1ccco1)c1ccc2nc3sc4c(c3c(=O)n2c1)CCCC4` [MLS000091875]: greater than 4.06 µM; `Cc1ccnc(NC(=O)CCCOc2cc(=O)n(C)c3ccccc23)c1` [4-(1-methyl-2-oxidanylidene-quinolin-4-yl)oxy-N-(4-methylpyridin-2-yl)butanamide]: 8.98 µM. Still for that read-out and setting: next, `O=S(=O)(C/C(=C/CO)S(=O)(=O)c1ccccc1)c1ccccc1` [(Z)-3,4-bis(benzenesulfonyl)but-2-en-1-ol]: 4.03 µM; `O=C(CSc1nnnn1C1CC2CCC1C2)Nc1ccnc2ccccc12` (stereo not drawn) [2-[(1-bicyclo[2.2.1]hept-2-yl-1H-tetrazol-5-yl)thio]-N-4-quinolinylacetamide]: 0.444 µM; `CCNC(=O)CCc1nc(-c2ccc(C(C)(C)C)cc2)no1` [3-[3-(4-tert-butylphenyl)-1,2,4-oxadiazol-5-yl]-N-ethyl-propanamide]: 0.0417 µM. Same read-out and setting: next, `CCCCS(=O)(=O)/C=C\C=C/S(=O)(=O)CCCC` [SMR000020833]: 1.64 µM. In turn, `C=CS(=O)(=O)c1ccc(Oc2ccc(S(=O)(=O)C=C)cc2)cc1` [1-ethenylsulfonyl-4-(4-ethenylsulfonylphenoxy)benzene] yielded a half-inhibitory concentration (IC50) of 5.29 µM. For the compound `c1ccc(CNc2ncnc3ccccc23)cc1` [N-benzylquinazolin-4-amine], the IC50 amounted to 21.9 µM.

`CC(=O)c1sc(NC(=O)C2(F)C(F)(F)C(F)(F)C(F)(F)C(F)(F)C2(F)F)nc1C` [MLS000040071] yielded an IC50 of 6.77 µM. This IC50 lies about 3.2-fold lower than the previous one.

`CCCc1ccc(-c2ccc(F)c(N)c2)nc1` [2-fluoranyl-5-(5-propylpyridin-2-yl)aniline] displayed an IC50 of 6 µM.

Consider `Cc1nc(NC(C)c2ccccc2)c2oc3ccccc3c2n1` (stereo not drawn) [(2-methylbenzofuro[3,2-d]pyrimidin-4-yl)-(1-phenylethyl)amine], for which the IC50 under setting [1] was determined as 23.1 µM. That is a double-digit micromolar value. As to `Cc1ccsc1C(=O)OCC(=O)c1cc(C)n(CC2CCCO2)c1C` (stereo not drawn) [3-methyl-2-thiophenecarboxylic acid [2-[2,5-dimethyl-1-(2-oxolanylmethyl)-3-pyrrolyl]-2-oxoethyl] ester], the IC50 was greater than 0.0453 µM. Same read-out and setting: next, `CC(=O)Nc1ccccc1OCC(=O)c1cc(C)n(Cc2cccs2)c1C` [MLS000056239]: 0.841 µM; `CN(C)c1ccc(NC(=S)c2ccccn2)cc1` [MLS000111989]: 3.04 µM; `Clc1cccc(-c2nc(-c3ccccn3)no2)c1` [2-[5-(3-Chloro-phenyl)-[1,2,4]oxadiazol-3-yl]-pyridine]: 5.41 µM. Compound `CCn1nc(-c2ccccc2)nc2c(=O)n(C)c(=O)nc1-2` [1-Ethyl-6-methyl-3-phenyl-1H-pyrimido[5,4-e][1,2,4]triazine-5,7-dione] gave a half-maximal inhibitory concentration (IC50) of 3.72 µM. Same read-out and setting: to `Cc1ccc(C(=O)CC=Nc2ccccn2)cc1` [(E)-1-(4-methylphenyl)-3-(2-pyridinylamino)-2-propen-1-one] belongs 1.49 µM; to `COc1ccc(-c2noc(CCCC(=O)O)n2)cc1` [4-[3-(4-methoxyphenyl)-1,2,4-oxadiazol-5-yl]butanoic acid], 2.72 µM; to `O=S1(=O)C=C(Sc2nc3cc(Cl)ccc3o2)c2ccccc21` [SMR000019512], 5.99 µM. In turn, `O=C1c2ccccc2S(=O)(=O)N1Cc1nc2ccccc2s1` [2-(1,3-benzothiazol-2-ylmethyl)-1,1-bis(oxidanylidene)-1,2-benzothiazol-3-one] showed an IC50 under setting [1] of 10.6 µM. That is a double-digit micromolar value.

The compound `O=C(c1ccccc1)C(CCC(CN1CCOCC1)C(=O)c1ccccc1)CN1CCOCC1` (stereo not drawn) [2,5-bis(4-morpholinylmethyl)-1,6-diphenylhexane-1,6-dione;hydrochloride] came in with an IC50 of 18 µM.

In turn, `CCOC(=O)c1c(N)sc(C(=O)Nc2ccc3c(c2)OCO3)c1C` [2-amino-5-(1,3-benzodioxol-5-ylcarbamoyl)-4-methyl-thiophene-3-carboxylic acid ethyl ester] yielded an IC50 of 8.33 µM.
